According to ChEMBL document CHEMBL5346933, “Design and synthesis of novel arylurea derivatives of aryloxy(1-phenylpropyl) alicyclic diamines with antimicrobial activity against multidrug-resistant Gram-positive bacteria” (Eur J Med Chem, 2023):
Converted amounts (≈) assume the structure as drawn. The source made the active and inactive calls. No cut-off for these calls is given here.

Key:
[1] = Cytotoxicity against human BJ cells assessed as cell viability at 25 ug/ml incubated for 24 hrs by MTT assay; assay type: toxicity, cell-based; conditions: at 25 µg/mL, read-out: Activity
Enterococcus faecalis = assay: Antibacterial activity against Enterococcus faecalis ATCC 29212 assessed as inhibition of bacterial growth incubated for 18 hrs by broth microdilution method; assay type: functional
[2] = Cytotoxicity against human MRC5 cells assessed as reduction in cell viability incubated for 24 hrs by MTT assay; assay type: toxicity, cell-based
Streptococcus pneumoniae [3] = assay: Antibacterial activity against Streptococcus pneumoniae ATCC 49619 assessed as inhibition of bacterial growth incubated for 18 hrs by broth microdilution method; assay type: functional
[4] = Cytotoxicity against human BJ cells assessed as reduction in cell viability incubated for 24 hrs by MTT assay; assay type: toxicity, cell-based
[5] = test system: Staphylococcus epidermidis; assay: Antibacterial activity against linezolid-resistant Staphylococcus epidermidis NIL 4399/19 assessed as inhibition of bacterial growth incubated for 18 hrs by broth microdilution method; assay type: functional
Klebsiella pneumoniae = assay: Antibacterial activity against Klebsiella pneumoniae ATCC 700603 assessed as inhibition of bacterial growth incubated for 18 hrs by broth microdilution method; assay type: functional
Pseudomonas aeruginosa = assay: Antibacterial activity against Pseudomonas aeruginosa ATCC 27853 assessed as inhibition of bacterial growth incubated for 18 hrs by broth microdilution method; assay type: functional
Escherichia coli = assay: Antibacterial activity against Escherichia coli ATCC 25922 assessed as inhibition of bacterial growth incubated for 18 hrs by broth microdilution method; assay type: functional
[6] = test system: Staphylococcus epidermidis; assay: Antibacterial activity against methicillin-susceptible Staphylococcus epidermidis ATCC 12228 assessed as inhibition of bacterial growth incubated for 18 hrs by broth microdilution method; assay type: functional
Staphylococcus aureus [7] = assay: Antibacterial activity against methicillin-susceptible Staphylococcus aureus ATCC 25923 assessed as inhibition of bacterial growth incubated for 18 hrs by broth microdilution method; assay type: functional
[8] = test system: Staphylococcus epidermidis; assay: Antibacterial activity against biofilm producer Staphylococcus epidermidis ATCC 35984 assessed as inhibition of bacterial growth incubated for 18 hrs by broth microdilution method; assay type: functional
[9] = Induction of hemolysis in horse RBC at 200 uM incubated for 1 hr; assay type: toxicity, cell-based, Equus caballus, Erythrocyte; conditions: horse red blood cells (erythrocytes), read-out: Activity
Staphylococcus aureus [10] = assay: Antibacterial activity against methicillin-resistant Staphylococcus aureus clinical strain 19449 assessed as inhibition of bacterial growth incubated for 18 hrs by broth microdilution method; assay type: functional
Staphylococcus aureus [11] = assay: Antibacterial activity against biofilm producer Staphylococcus aureus RN450 assessed as inhibition of bacterial growth incubated for 18 hrs by broth microdilution method; assay type: functional
Staphylococcus aureus [12] = assay: Antibacterial activity against vancomycin-intermediate Staphylococcus aureus ATCC 700699 assessed as inhibition of bacterial growth incubated for 18 hrs by broth microdilution method; assay type: functional
Enterococcus faecium = assay: Antibacterial activity against vancomycin-resistant Enterococcus faecium assessed as inhibition of bacterial growth incubated for 18 hrs by broth microdilution method; assay type: functional
Streptococcus pneumoniae [13] = assay: Antibacterial activity against macrolides-lincosamides and streptogramins B-resistant Streptococcus pneumoniae O/19/4199 assessed as inhibition of bacterial growth incubated for 18 hrs by broth microdilution method; assay type: functional
Streptococcus pneumoniae [14] = assay: Antibacterial activity against Oxacillin-resistant Streptococcus pneumoniae O/19/4541 assessed as inhibition of bacterial growth incubated for 18 hrs by broth microdilution method; assay type: functional
Staphylococcus aureus [15] = assay: Antibacterial activity against Staphylococcus aureus Newman assessed as inhibition of bacterial growth incubated for 18 hrs by broth microdilution method; assay type: functional
Cell membrane [16] = assay: Induction of cell membrane depolarization in methicillin-resistant Staphylococcus aureus 19449 assessed as ratio of red to green fluorescence intensity at 500 uM incubated for 25 to 30 mins by DiOC2(3) probe based flow cytometry; assay type: subcellular; conditions: time 25-30 min
Cell membrane [17] = assay: Induction of cell membrane depolarization in Staphylococcus aureus Newman assessed as ratio of red to green fluorescence intensity at 500 uM incubated for 25 to 30 mins by DiOC2(3) probe based flow cytometry; assay type: subcellular; conditions: time 25-30 min
Cell membrane [18] = assay: Induction of cell membrane depolarization in methicillin-resistant Staphylococcus aureus 19449 assessed as bacterial cells with depolarized membrane potential at 500 uM incubated for 25 to 30 mins by DiOC2(3) probe based flow cytometry (reference value: 0.7%); assay type: subcellular; conditions: time 25-30 min
Cell membrane [19] = assay: Induction of cell membrane depolarization in Staphylococcus aureus Newman assessed as bacterial cells with depolarized membrane potential at 500 uM incubated for 25 to 30 mins by DiOC2(3) probe based flow cytometry (reference value: 1.6%); assay type: subcellular; conditions: time 25-30 min
Cell membrane [20] = assay: Induction of cell membrane depolarization in methicillin-resistant Staphylococcus aureus 19449 assessed as bacterial cells with polarized membrane potential at 500 uM incubated for 25 to 30 mins by DiOC2(3) probe based flow cytometry (reference value: 98.8%); assay type: subcellular; conditions: time 25-30 min
Cell membrane [21] = assay: Induction of cell membrane depolarization in vancomycin-resistant Enterococcus faecium clinical strain assessed as bacterial cells with depolarized membrane potential at 500 uM incubated for 25 to 30 mins by DiOC2(3) probe based flow cytometry (reference value: 0.8%); assay type: subcellular; conditions: time 25-30 min
Cell membrane [22] = assay: Induction of cell membrane depolarization in Staphylococcus aureus Newman assessed as bacterial cells with polarized membrane potential at 500 uM incubated for 25 to 30 mins by DiOC2(3) probe based flow cytometry (reference value: 94.3%); assay type: subcellular; conditions: time 25-30 min
Cell membrane [23] = assay: Induction of cell membrane depolarization in vancomycin-resistant Enterococcus faecium clinical strain assessed as bacterial cells with polarized membrane potential at 500 uM incubated for 25 to 30 mins by DiOC2(3) probe based flow cytometry (reference value: 96.8%); assay type: subcellular; conditions: time 25-30 min
Cell membrane [24] = assay: Induction of cell membrane depolarization in vancomycin-resistant Enterococcus faecium clinical strain assessed as ratio of red to green fluorescence intensity at 500 uM incubated for 25 to 30 mins by DiOC2(3) probe based flow cytometry; assay type: subcellular; conditions: time 25-30 min

Compound	MIC (Enterococcus faecalis)	IC50 at 24 h [2]	MIC (Streptococcus pneumoniae [3])	IC50 at 24 h [4]	MIC [5]	Activity (Klebsiella pneumoniae)	Activity (Pseudomonas aeruginosa)	Activity (Escherichia coli)	MIC [6]	MIC (Staphylococcus aureus [7])	MIC [8]	hemolysis at 1 h, 200 µM [9]	MIC (Staphylococcus aureus [10])	MIC (Staphylococcus aureus [11])	MIC (Staphylococcus aureus [12])	MIC (Enterococcus faecium)	other results
O=C(Nc1cccc(Cl)c1)NC1CCN(CCC(Oc2cccc(Cl)c2)c2ccccc2)CC1 (racemic)	3.12 µg/mL (≈ 6.27 µM)	6.25 µg/mL (≈ 12.5 µM)	6.25 µg/mL (≈ 12.5 µM)	> 25 µg/mL	3.12 µg/mL (≈ 6.27 µM)	inactive	inactive	inactive	3.12 µg/mL (≈ 6.27 µM)	3.12 µg/mL (≈ 6.27 µM)	1.56 µg/mL (≈ 3.13 µM)	< 1%	3.12 µg/mL (≈ 6.27 µM)	1.56 µg/mL (≈ 3.13 µM)	3.12 µg/mL (≈ 6.27 µM)	1.56 µg/mL (≈ 3.13 µM)	viability at 24 h, 25 ug/ml [1]: 91%
CC(=O)NC[C@H]1CN(c2ccc(N3CCOCC3)c(F)c2)C(=O)O1 [LINEZOLID]	1.56 µg/mL (≈ 4.62 µM)	–	0.78 µg/mL (≈ 2.31 µM)	–	250 µg/mL (≈ 741 µM)	–	–	–	1.56 µg/mL (≈ 4.62 µM)	3.12 µg/mL (≈ 9.26 µM)	1.56 µg/mL (≈ 4.62 µM)	–	3.12 µg/mL (≈ 9.26 µM)	0.78 µg/mL (≈ 2.31 µM)	1.56 µg/mL (≈ 4.62 µM)	0.78 µg/mL (≈ 2.31 µM)	MIC (Streptococcus pneumoniae [13]): 1.56 µg/mL (≈ 4.62 µM); MIC (Streptococcus pneumoniae [14]): 1.56 µg/mL (≈ 4.62 µM); MIC (Staphylococcus aureus [15]): 1.56 µg/mL (≈ 4.62 µM)
CN[C@H](CC(C)C)C(=O)N[C@H]1C(=O)N[C@@H](CC(N)=O)C(=O)N[C@H]2C(=O)N[C@H]3C(=O)N[C@H](C(=O)N[C@H](C(=O)O)c4cc(O)cc(O)c4-c4cc3ccc4O)[C@H](O)c3ccc(c(Cl)c3)Oc3cc2cc(c3O[C@@H]2O[C@H](CO)[C@@H](O)[C@H](O)[C@H]2O[C@H]2C[C@](C)(N)[C@H](O)[C@H](C)O2)Oc2ccc(cc2Cl)[C@H]1O [VANCOMYCIN]	0.78 µg/mL (≈ 0.538 µM)	–	0.39 µg/mL (≈ 0.269 µM)	–	–	–	–	–	0.78 µg/mL (≈ 0.538 µM)	0.78 µg/mL (≈ 0.538 µM)	0.78 µg/mL (≈ 0.538 µM)	–	0.78 µg/mL (≈ 0.538 µM)	–	6.25 µg/mL (≈ 4.31 µM)	50 µg/mL (≈ 34.5 µM)	MIC (Streptococcus pneumoniae [14]): 0.1 µg/mL (≈ 0.069 µM)
O=C(Nc1cccc(Cl)c1)N[C@H]1CCN(CCC(Oc2ccc(C(F)(F)F)cc2)c2ccccc2)C1 (some centres not stated)	3.12 µg/mL (≈ 6.03 µM)	3.12 µg/mL (≈ 6.03 µM)	6.25 µg/mL (≈ 12.1 µM)	6.25 µg/mL (≈ 12.1 µM)	1.56 µg/mL (≈ 3.01 µM)	inactive	inactive	inactive	1.56 µg/mL (≈ 3.01 µM)	3.12 µg/mL (≈ 6.03 µM)	3.12 µg/mL (≈ 6.03 µM)	10%	3.12 µg/mL (≈ 6.03 µM)	1.56 µg/mL (≈ 3.01 µM)	1.56 µg/mL (≈ 3.01 µM)	0.78 µg/mL (≈ 1.51 µM)	–
O=C(NCC1CCN(CCC(Oc2cccc(Cl)c2)c2ccccc2)CC1)Nc1cccc(Cl)c1 (racemic)	3.12 µg/mL (≈ 6.1 µM)	3.12 µg/mL (≈ 6.1 µM)	6.25 µg/mL (≈ 12.2 µM)	6.25 µg/mL (≈ 12.2 µM)	6.25 µg/mL (≈ 12.2 µM)	inactive	inactive	inactive	1.56 µg/mL (≈ 3.04 µM)	6.25 µg/mL (≈ 12.2 µM)	3.12 µg/mL (≈ 6.1 µM)	6%	6.25 µg/mL (≈ 12.2 µM)	3.12 µg/mL (≈ 6.1 µM)	3.12 µg/mL (≈ 6.1 µM)	1.56 µg/mL (≈ 3.04 µM)	–
N#CC(C#N)=NNc1cccc(Cl)c1	–	–	–	–	–	–	–	–	–	–	–	–	–	–	–	–	Ratio (Cell membrane [16]): 0.34; Ratio (Cell membrane [17]): 0.33; Activity (Cell membrane [18]): 99%; Activity (Cell membrane [19]): 94.5%; Activity (Cell membrane [20]): 0.3%; Activity (Cell membrane [21]): 88.1%; Activity (Cell membrane [22]): 0%; Activity (Cell membrane [23]): 6.5%; Ratio (Cell membrane [24]): 0.29
O=C(NCC1CCN(CCC(Oc2ccc(Cl)cc2)c2ccccc2)CC1)Nc1cccc(Cl)c1 (racemic)	3.12 µg/mL (≈ 6.1 µM)	3.12 µg/mL (≈ 6.1 µM)	6.25 µg/mL (≈ 12.2 µM)	12.5 µg/mL (≈ 24.4 µM)	6.25 µg/mL (≈ 12.2 µM)	inactive	inactive	inactive	3.12 µg/mL (≈ 6.1 µM)	6.25 µg/mL (≈ 12.2 µM)	3.12 µg/mL (≈ 6.1 µM)	6%	6.25 µg/mL (≈ 12.2 µM)	3.12 µg/mL (≈ 6.1 µM)	3.12 µg/mL (≈ 6.1 µM)	0.39 µg/mL (≈ 0.761 µM)	–
O=C(NCC1CCN(CCC(Oc2ccc(C(F)(F)F)cc2)c2ccccc2)CC1)Nc1cccc(Cl)c1 (racemic)	3.12 µg/mL (≈ 5.72 µM)	3.12 µg/mL (≈ 5.72 µM)	12.5 µg/mL (≈ 22.9 µM)	3.12 µg/mL (≈ 5.72 µM)	3.12 µg/mL (≈ 5.72 µM)	inactive	inactive	inactive	1.56 µg/mL (≈ 2.86 µM)	3.12 µg/mL (≈ 5.72 µM)	1.56 µg/mL (≈ 2.86 µM)	5%	3.12 µg/mL (≈ 5.72 µM)	1.56 µg/mL (≈ 2.86 µM)	6.25 µg/mL (≈ 11.4 µM)	0.78 µg/mL (≈ 1.43 µM)	–
